Measurements as given in article PMC12650144, “Interactive Role of the DHPR β1a SH3 Domain in Skeletal Muscle Excitation–Contraction Coupling” (Biomolecules, 2025).
Where no end group is shown, it is not given here.

How the values were obtained:
[1] = target: T1, DHPR β1a subunit (full-length, β1a-FL) (Mus musculus, UniProt Q8R3Z5); assay: Tryptophan fluorescence quenching binding to full-length β1a; conditions: excitation 280 nm, emission 340 nm, full-length β1a titrated with loop/peptide, nonlinear regression, read-out: Binding affinity to β1a subunit (Kd)
T1 construct: full-length β1a (β1a-FL); polyhistidine-tagged ubiquitin (N, cleaved yes); made in house; host or cells: Escherichia coli BL21
Description: (§1) The mouse β1a and β2a subunits (NCBI reference sequences—NM_031173 and NM_023116), the β1a-SH3 domain (β1a residues V101-P272), and the α1s II-III loop (NCBI reference sequence—X05921, residues E666-L791) were amplified by PCR. Each PCR product was cloned in-frame downstream of a polyhistidine-tagged ubiquitin sequence in the plasmid pHUE [27]. The plasmids were transferred into Escherichia coli BL21, and expression of fusion protein was induced by addition of 0.1 mM IPTG (isopropyl β-D-1thiogalactoside) to the culture medium. The His-tagged proteins were purified by chromatography on Ni-agarose. Ubiquitin was removed from the N-terminal end of the recombinant proteins by digestion with a His-tagged ubiquitin-dependant protease. The recombinant β-subunit proteins and the II-III loop were further purified by preparative electrophoresis using a Bio-Rad model 491 prep cell. The final samples were dialysed into a buffer containing 50 mM sodium phosphate pH 8 and 300 mM NaCl (buffer A) and stored at −70 °C.
(§2) Equilibrium dissociation constants for β1a and β2a subunit and β1a-SH3 domain binding to the α1s II-III loop and its peptides were determined with a Perkin-Elmer LS 50B6 Spectrofluorimeter. Changes in the intrinsic fluorescence of the tryptophan residues of the β1a subunit or the β1a-SH3 domain was monitored while titrating the α1s II-III loop or its peptides. Excitation was at 280 nm, and fluorescence emission was monitored at 340 nm. Data was corrected for dilution effects and for intrinsic fluorescence of the II-III loop or its peptides and fitted with nonlinear regression using GraphPad Prism software (6.0), as previously described.

[2] = target: T2, β1a-SH3 domain (residues 101–272) (Mus musculus, UniProt Q8R3Z5); assay: Tryptophan fluorescence quenching binding to β1a SH3 domain; conditions: excitation 280 nm, emission 340 nm, refolded β1a-SH3, read-out: Binding affinity to β1a–SH3 domain (residues 101–272) (Kd)
T2 construct: The β1a SH3 protein (residues V101-P272) was purified by IMAC; polyhistidine-tagged ubiquitin (N, cleaved yes); made in house; host or cells: Escherichia coli BL21
Description: as §1
The β1a SH3 protein (residues V101-P272) was purified by IMAC (immobilized metal affinity chromatography) under denaturing conditions (6M guanidinium HCl) using Ni-NTA resin. The purity of the protein was assessed by SDS page gels (Supplementary Figure S1). The purified protein was then refolded by dialysing against buffer A, and the folded structure was checked by circular dichroism (Supplementary Figure S2). The purified and refolded protein was stored (−70 °C) at concentrations of ~1μM. It was not possible to directly assess the aggregation state of the β1a SH3 protein construct at 1μM as the SEC UV peak absorbance was below detectable levels.
as §2

[3] = system: L-type Ca2+ current (DHPR channel) in β-null myotubes; assay: L-type Ca2+ current, whole-cell patch clamp in cultured myotubes; type: cell-based, mouse; conditions: mean ± SE
Description: All animal procedures were carried out in accordance with the guidelines of Harvard Medical Area Standing Committee on Animals under experimental protocol number 2589, approved on 01 Sept 2014. Primary myoblasts from DHPRβ1a-null mouse skeletal muscles were isolated from the hindlimb of neonatal mice, as described elsewhere. Stably transduced cell lines were then obtained by infection of primary β-null myoblasts with virion particles carrying the β1a genes at a multiplicity of infection (MOI) of 0.5 and then selected with […] Puromycin for 2 weeks, as described previously. Cells expressing mouse Wtβ1a or β1a-loop chimera subunit were then grown and differentiated in 96-well plates, as described previously. Calcium imaging was performed 5–6 days after differentiation in myotubes loaded with 5μM Fura-2-AM or 2μM Fluo-4 (Molecular Probes) in imaging buffer (125 mM NaCl, 5 mM KCl, 2 mM CaCl2, 1.2 mM MgSO4, 6 mM glucose, and 25 mM HEPES-Tris, pH 7.4). Cell membrane depolarization was performed by 5s of perfusion with 5–7 volumes of imaging buffer containing increasing concentrations of KCl. To preserve osmolarity of the depolarization buffer, the increased K concentration was compensated with an equivalent reduction in total NaCl concentration. Sarcoplasmic reticulum Ca^2+ content of Fura-2-AM-loaded cultured myotubes was estimated from the peak fluorescent amplitude of the Ca^2+ transient induced by 40 mM caffeine stimulation in the presence of 1μM thapsigargin (Tg) and in the absence of extracellular Ca^2+ [34, 35]. Extracellular Ca^2+ entry at rest was estimated from the rate of dye quench by Mn^2+ entry in myotubes loaded with 5μM Fura-2-AM in the presence and in the absence of 10μM KB-R7943 (glycerol, 2-(2-(4-(4-nitrobenzyloxy) phenyl)ethyl)-isothiourea methane sulfonate), as described previously. Cells were then imaged at 360 nm (5 nm) with an intensified 10-bit digital CCD camera (XR-Mega-10, Stanford Photonics, Stanford, CA, USA) using aDG4 multiwavelength light source. Fura-2 images were acquired with a 40 objective (Olympus, UApo/340), and fluorescent emission at 510 nm was then captured from regions of interest within each myotube at 33 frames/s using Piper-controlled acquisition software (Stanford Photonics) and is expressed as the ratio of signal collected at alternating 340 nm/380 nm excitation wavelengths. […] Fluo-4 fluorescent images were acquired using a 60 objective, and emission at 510 nm was then collected from regions of interest from individual cells excited at 490 nm and is expressed as arbitrary fluorescent units.
The macroscopic Ca^2+ current was determined using the same equipment and protocols previously described (PMID: 29212769). […]

[4] = system: DHPRβ1a-null myotubes expressing β1a constructs; assay: Depolarization (KCl)-induced Ca2+ release in Fura-2-loaded myotubes; type: cell-based, mouse; conditions: Fura-2-AM-loaded myotubes expressing the construct; sigmoidal dose–response fit
Description: All animal procedures were carried out in accordance with the guidelines of Harvard Medical Area Standing Committee on Animals under experimental protocol number 2589, approved on 01 Sept 2014. Primary myoblasts from DHPRβ1a-null mouse skeletal muscles were isolated from the hindlimb of neonatal mice, as described elsewhere. Stably transduced cell lines were then obtained by infection of primary β-null myoblasts with virion particles carrying the β1a genes at a multiplicity of infection (MOI) of 0.5 and then selected with […] Puromycin for 2 weeks, as described previously. Cells expressing mouse Wtβ1a or β1a-loop chimera subunit were then grown and differentiated in 96-well plates, as described previously. […] Fura-2 images were acquired with a 40 objective (Olympus, UApo/340), and fluorescent emission at 510 nm was then captured from regions of interest within each myotube at 33 frames/s using Piper-controlled acquisition software (Stanford Photonics) and is expressed as the ratio of signal collected at alternating 340 nm/380 nm excitation wavelengths. […] Fluo-4 fluorescent images were acquired using a 60 objective, and emission at 510 nm was then collected from regions of interest from individual cells excited at 490 nm and is expressed as arbitrary fluorescent units.

[5] = target: α1s C (α1s II-III loop C region peptide, residues 720–765); assay: Fluorescence binding of β isoforms and chimeras to α1s C peptide; conditions: β construct titrated with α1s C peptide
Description: as §1, with “The recombinant β-subunit proteins and the II-III loop were further purified by preparative electrophoresis using a Bio-Rad model 491 prep cell. The final samples were dialysed into a buffer containing 50 mM sodium phosphate pH 8 and 300 mM NaCl (buffer A) and stored at −70 °C.” left out
as §2

T1 sequence (Q8R3Z5 1-524 isoform Q8R3Z5-4): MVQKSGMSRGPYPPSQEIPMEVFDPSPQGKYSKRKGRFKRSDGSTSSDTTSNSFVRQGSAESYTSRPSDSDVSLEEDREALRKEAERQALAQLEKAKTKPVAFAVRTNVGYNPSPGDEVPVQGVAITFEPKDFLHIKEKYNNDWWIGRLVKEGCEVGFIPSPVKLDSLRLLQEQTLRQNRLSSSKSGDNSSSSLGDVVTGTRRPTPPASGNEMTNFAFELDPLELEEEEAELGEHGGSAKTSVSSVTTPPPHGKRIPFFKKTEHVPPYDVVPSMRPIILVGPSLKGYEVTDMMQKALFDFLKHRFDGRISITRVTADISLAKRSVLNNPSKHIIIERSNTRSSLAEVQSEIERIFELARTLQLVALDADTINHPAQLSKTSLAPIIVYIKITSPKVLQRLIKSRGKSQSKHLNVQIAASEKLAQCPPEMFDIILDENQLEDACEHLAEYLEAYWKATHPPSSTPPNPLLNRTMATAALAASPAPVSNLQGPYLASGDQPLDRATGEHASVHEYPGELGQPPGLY
T2 sequence (Q8R3Z5 101-272 isoform Q8R3Z5-4): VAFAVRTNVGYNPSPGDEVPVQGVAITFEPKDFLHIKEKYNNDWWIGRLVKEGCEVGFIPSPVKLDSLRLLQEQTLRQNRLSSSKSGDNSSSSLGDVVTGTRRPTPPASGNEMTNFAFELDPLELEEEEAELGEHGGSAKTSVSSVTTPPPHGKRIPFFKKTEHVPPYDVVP

Substance | Kd [1] [µM] | Kd [2] [µM] | also measured
DEPEIPVSPRPRPLAEL [α1s C binding peptide 2 (sP2)] | 5.4 ± 0.9 | 3.8 ± 0.2 | 
EEPEMPVGPRPRPLSEL [α1c C binding peptide 2 (cP2)] | 4.6 ± 0.3 | 3.6 ± 0.3 | 
KDPYPSADFPGDD [α1s C binding peptide 1 (sP1)] | 3.6 ± 0.2 | 2.6 ± 0.4 | 
KDPYPSADFPGED [sP1 D⟶E mutant] | 15 ± 2 | 17 ± 1 | 
KDPYPSADFTGDD [sP1 P⟶T mutant] | 22 ± 2 | 19 ± 2 | 
KDPYPSADTPGDD [sP1 F⟶T mutant] | 4.6 ± 0.4 | 4.6 ± 0.3 | 
KDPYPSPDFPGDD [sP1 A⟶P mutant] | 4.5 ± 0.3 | 2.3 ± 0.2 | 
KSPYPNPETTGEE [α1c C binding peptide 1 (cP1)] | 14 ± 2 | 19 ± 4 | 
LKVDEFESNVNEVKDPYPSADFPGDDEEDEPEIPVSPRPRPLAELQ [α1s II–III loop C region (α1s C)] |  | 3.6 ± 0.6 | 
β1a: full-length mouse DHPR β1a subunit; recombinant or expressed in β-null myotubes |  |  | V1/2 ([3]; potential at which G = 1/2 Gmax, n = 22 / 21): 14.7 ± 0.88 mV; Vr ([3]; reversal potential, n = 22 / 21): 84.8 ± 0.35 mV; k ([3]; slope parameter, n = 22 / 21): 6.0 ± 0.17 mV; Gmax ([3]; β-null myotubes expressing the construct, external 10 mM CaCl2, n = 22 (Wt-β1a), n = 21 (β1a-RT loop)): 453 ± 33.0 pS/pF; EC50 [4]: 6680 ± 450 µM; Kd [5]: 4.9 ± 0.6 µM
β2a: mouse DHPR β2a (cardiac isoform) subunit, recombinant |  |  | Kd for binding to α1s C [5]: no measurable binding
